Experimental data: PubChem BioAssay AID2060903 (Molecular Pharmacology Branch, DTP, NCI, 2025)

Test system: 377384-186-R-J1-PDC complex spheroid viability
Experiment: Anticancer human tumor 377384-186-R-J1-PDC patient-derived pancreatic carcinoma cell line growth inhibition [RAS]
Details: for IC50: curve of first compound; for viability, T/C: stronger effect = lower value; active = viability on the fitted dose curve at most 10% of control; inactive = the rest
How it was run: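 Multi-cell-type spheroids: tumor cells plus HUVEC endothelial cells and mesenchymal stem cells. RAS-pathway inhibitors were combined with targeted agents, each dosed in half-log steps down from clinical Cmax, or from 10 microM when Cmax was unknown.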
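Also: spheroids exposed to compounds for seven days before readout.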

CC(=O)OC12COC1CC(O)C1(C)C(=O)C(O)C3=C(C)C(OC(=O)C(O)C(NC(=O)OC(C)(C)C)c4ccccc4)CC(O)(C(OC(=O)c4ccccc4)C21)C3(C)C (configuration not stated) + CCn1c(-c2cccnc2C(C)OC)c2c3cc(ccc31)N1CCOC(CC(NC(=O)C(C(C)C)N(C)C(=O)C3(F)CCN(C(=O)C#CC(C)(C)N(C)C)CC3)C(=O)N3CCCC(N3)C(=O)OCC(C)(C)C2)C1
inactive: viability, T/C (second compound 0.000949 µM, first compound 0.0316 µM) 10.2% | viability, T/C (second compound 0.000949 µM, first compound 0.1 µM) 10.2% | viability, T/C (second compound 0.000949 µM, first compound 0.316 µM) 11% | viability, T/C (second compound 0.000949 µM, first compound 1 µM) 14.1% | viability, T/C (second compound 0.000949 µM, first compound 3.16 µM) 14.5% | viability, T/C (second compound 0.000949 µM, first compound 10 µM) 15.6% | viability, T/C (second compound 0.003 µM, first compound 0.0316 µM) 11.1% | viability, T/C (second compound 0.003 µM, first compound 0.1 µM) 15.1% | viability, T/C (second compound 0.003 µM, first compound 0.316 µM) 11% | viability, T/C (second compound 0.003 µM, first compound 1 µM) 12.9% | viability, T/C (second compound 0.003 µM, first compound 3.16 µM) 14.7% | viability, T/C (second compound 0.003 µM, first compound 10 µM) 15.9% | viability, T/C (second compound 0.00949 µM, first compound 0.0316 µM) 10.5% | viability, T/C (second compound 0.00949 µM, first compound 0.1 µM) 11.6% | viability, T/C (second compound 0.00949 µM, first compound 0.316 µM) 12.5% | viability, T/C (second compound 0.00949 µM, first compound 1 µM) 12% | viability, T/C (second compound 0.00949 µM, first compound 3.16 µM) 13.7% | viability, T/C (second compound 0.00949 µM, first compound 10 µM) 14.4% | viability, T/C (second compound 0.03 µM, first compound 0.0316 µM) 9.38% | viability, T/C (second compound 0.03 µM, first compound 0.1 µM) 11.6% | viability, T/C (second compound 0.03 µM, first compound 0.316 µM) 12.8% | viability, T/C (second compound 0.03 µM, first compound 1 µM) 12.5% | viability, T/C (second compound 0.03 µM, first compound 3.16 µM) 13.4% | viability, T/C (second compound 0.03 µM, first compound 10 µM) 15.4% | viability, T/C (second compound 0.0949 µM, first compound 0.0316 µM) 9.14% | viability, T/C (second compound 0.0949 µM, first compound 0.1 µM) 10.3% | viability, T/C (second compound 0.0949 µM, first compound 0.316 µM) 12.3% | viability, T/C (second compound 0.0949 µM, first compound 1 µM) 12.8% | viability, T/C (second compound 0.0949 µM, first compound 3.16 µM) 13.1% | viability, T/C (second compound 0.0949 µM, first compound 10 µM) 12.8% | viability, T/C (second compound 0.3 µM, first compound 0.0316 µM) 6.36% | viability, T/C (second compound 0.3 µM, first compound 0.1 µM) 8.8% | viability, T/C (second compound 0.3 µM, first compound 0.316 µM) 9.95% | viability, T/C (second compound 0.3 µM, first compound 1 µM) 11.7% | viability, T/C (second compound 0.3 µM, first compound 3.16 µM) 12.3% | viability, T/C (second compound 0.3 µM, first compound 10 µM) 12%
< 0.0316 µM: IC50 (second compound 0.000949 µM) | IC50 (second compound 0.003 µM) | IC50 (second compound 0.00949 µM) | IC50 (second compound 0.03 µM) | IC50 (second compound 0.0949 µM) | IC50 (second compound 0.3 µM)
